Laboratory results from PMC6155811, “Effect of Phenolic Compounds from Elderflowers on Glucose- and Fatty Acid Uptake in Human Myotubes and HepG2-Cells” (Molecules : A Journal of Synthetic Chemistry and Natural …, 2017).
Like-named read-outs stand apart in the source and are kept apart here.

Key:
[1] = biological target: T1, 15-lipoxygenase (15-LO) from soybeans (Glycine max, UniProt P08170); experiment: Inhibition of 15-lipoxygenase; format: biochemical, soybean; conditions: IC50 ± SD
T1 construct: 15-lipoxygenase (15-LO) from soybeans; purchased Sigma-Aldrich (St. Louis, MO, USA); host or cells: soybeans
T1 sequence (P08170 1-839): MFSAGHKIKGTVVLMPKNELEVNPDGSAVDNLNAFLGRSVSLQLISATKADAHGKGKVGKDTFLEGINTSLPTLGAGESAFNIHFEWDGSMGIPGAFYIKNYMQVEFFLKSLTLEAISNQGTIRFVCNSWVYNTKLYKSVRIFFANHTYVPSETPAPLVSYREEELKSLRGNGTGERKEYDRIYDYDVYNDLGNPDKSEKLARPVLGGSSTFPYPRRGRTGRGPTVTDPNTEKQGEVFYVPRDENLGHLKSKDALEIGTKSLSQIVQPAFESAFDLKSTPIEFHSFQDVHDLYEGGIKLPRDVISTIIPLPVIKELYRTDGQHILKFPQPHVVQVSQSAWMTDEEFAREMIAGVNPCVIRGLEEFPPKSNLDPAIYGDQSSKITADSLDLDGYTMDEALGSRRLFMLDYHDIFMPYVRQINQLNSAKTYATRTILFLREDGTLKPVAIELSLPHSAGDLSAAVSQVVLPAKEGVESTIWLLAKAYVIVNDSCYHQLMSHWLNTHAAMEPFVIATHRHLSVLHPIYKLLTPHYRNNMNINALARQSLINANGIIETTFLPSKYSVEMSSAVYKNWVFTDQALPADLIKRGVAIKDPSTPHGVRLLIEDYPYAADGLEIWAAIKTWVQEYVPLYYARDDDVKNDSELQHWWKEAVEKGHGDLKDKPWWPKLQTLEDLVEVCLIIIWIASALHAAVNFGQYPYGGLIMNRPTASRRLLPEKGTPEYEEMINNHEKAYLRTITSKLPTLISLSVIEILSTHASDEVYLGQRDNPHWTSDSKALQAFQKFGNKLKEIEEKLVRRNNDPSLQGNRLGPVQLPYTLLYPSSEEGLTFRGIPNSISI
Description: Test substances were dissolved in DMSO or water, and the assay was carried out as previously described.

[2] = biological target: T2, Baker's yeast α-glucosidase (Saccharomyces cerevisiae, UniProt P53341); experiment: biochemical; conditions: IC50 ± SD
T2 construct: purchased Sigma-Aldrich Chemie GmbH (Steinheim, Germany)
Description: The α-glucosidase inhibitory activity of the extracts was assessed according to the method described by Ranilla, et al.. Baker’s yeast α-glucosidase (EC 3.2.1.20) was purchased from Sigma-Aldrich Chemie GmbH (Steinheim, Germany).

[3] = DPPH radical scavenging; conditions: phenolic compounds and metabolites; IC50 ± SD
Description: Scavenging activity towards the DPPH radical was carried out as previously described. Test substances were dissolved in DMSO or water. Values were corrected for absorbance of the test substances.

[4] = system: human skeletal muscle cells; experiment: Oleic acid uptake in human myotubes ([14C]-oleic acid); format: cell-based; conditions: for increase in oleic acid uptake: 10 µM (highest concentration tested), 2 days, vs 0.1% DMSO control
Description: Figure 3 Effects of elderflower extracts, constituents and metabolites on oleic acid uptake in human myotubes. Myotubes were treated with (A) 12.5, 25 and 50 µg/mL of different crude extracts; (B,C) 0.1, 1 and 10 µM of elderflower phenolic compounds and metabolites for 2 days. Thereafter, the cells were exposed to [^14C]-oleic acid (37 kBq, 100 µM) for 4 h as described in Materials and Methods. A synthetic liver X receptor (LXR) agonist T0901317 (10 μM) was used as positive control. The figures show [^14C]-oleic acid uptake given as means ± SEM (n = 3) from separate experiments. * p < 0.05 vs. control (0.1% DMSO).
(§1) Satellite cells were isolated from the Musculus obliquus internus abdominis of four healthy donors, age 34.8 (±19) years, body mass index 22.9 (±2.7) kg/m^2, fasting glucose 4.9 (±0.6) mM, insulin, plasma lipids and blood pressure within normal range and no family history of diabetes. The muscle biopsies were obtained with informed consent and approval by the National Committee for Research Ethics (Oslo, Norway). The cells were cultured on 96-well CellBIND microplates DMEM-Glutamax (5.5 mM glucose), 2% fetal bovine serum, 2% Ultroser G, penicillin (100 units/mL), streptomycin (100 μg/mL) and amphotericin B (1.25 μg/mL) for proliferation. At 70%–80% confluence, the growth medium was replaced by DMEM-Glutamax (5.5 mM glucose) supplemented with 2% fetal bovine serum, penicillin (100 units/mL), streptomycin (100 μg/mL), amphotericin B (1.25 μg/mL) and insulin (25 pM), to induce differentiation. The cells were cultured in humidified 5% CO2 atmosphere at 37 °C, and the medium was changed every 2–3 days. Experiments were performed after 7 days of differentiation. 22-S-hydroxycholesterol (22-SHC) (10 µM) was used as positive control in the glucose uptake assay. The positive control used in the oleic acid assay is the synthetic liver X receptor (LXR) agonist T0901317 (10 µm).
(§2) Cells were exposed to test samples solved in 0.1% DMSO that were added directly to the medium for 2 days for myotubes and 24 h for HepG2 cells. Thereafter, cells were exposed to [^14C(U)]-glucose (1 μCi/mL, 100 μM) or [^14C]-oleic acid (37 kBq, 100 µM) for 4 h. A 96-well UniFilter-96 GF7B microplate (Perkin Elmer, Waltham, MA, USA) was mounted on top of the CellBIND plate (Corning Life-Sciences (Schiphol-Rijk, The Netherlands) and CO2 production was measured. After incubation the cells were washed twice with ice-cold phosphate buffered saline (PBS), lysed in 0.1 M NaOH, and radioactivity measured by liquid scintillation counting. The protein content of each sample was determined and glucose uptake was calculated using protein levels for standardization.

[5] = system: human skeletal muscle cells; experiment: Glucose uptake in human myotubes ([14C(U)]-glucose); format: cell-based; conditions: for increase in glucose uptake: 10 µM, 2 days, vs 0.1% DMSO control, mean ± SEM
Description: Figure 2 Effects of elderflower extracts, constituents and metabolites on glucose uptake in human myotubes. Myotubes were treated with (A) 12.5, 25 and 50 µg/mL of different crude extracts; (B,C) 0.1, 1 and 10 µM of elderflower phenolic compounds and metabolites for 2 days. Thereafter, the cells were exposed to [^14C(U)]-glucose (1 μCi/mL, 100 μM) for 4 h as described in the Materials and Methods section. 22-S-hydroxycholesterol (22-SHC) (10 μM) was used as positive control. The figures show [^14C(U)]-glucose uptake given as means ± standard error of the mean (SEM) (n = 3) from separate experiments. * p < 0.05 vs. control (0.1% dimethyl sulfoxide (DMSO)).
as §1, §2

[6] = biological target: T3, Porcine pancreatic α-amylase (Sus scrofa, UniProt P00690); experiment: α-Amylase inhibitory activity; format: biochemical; conditions: phenolic compounds and metabolites; IC50 ± SD
T3 construct: purchased Sigma-Aldrich Chemie GmbH
T3 sequence (P00690 16-511): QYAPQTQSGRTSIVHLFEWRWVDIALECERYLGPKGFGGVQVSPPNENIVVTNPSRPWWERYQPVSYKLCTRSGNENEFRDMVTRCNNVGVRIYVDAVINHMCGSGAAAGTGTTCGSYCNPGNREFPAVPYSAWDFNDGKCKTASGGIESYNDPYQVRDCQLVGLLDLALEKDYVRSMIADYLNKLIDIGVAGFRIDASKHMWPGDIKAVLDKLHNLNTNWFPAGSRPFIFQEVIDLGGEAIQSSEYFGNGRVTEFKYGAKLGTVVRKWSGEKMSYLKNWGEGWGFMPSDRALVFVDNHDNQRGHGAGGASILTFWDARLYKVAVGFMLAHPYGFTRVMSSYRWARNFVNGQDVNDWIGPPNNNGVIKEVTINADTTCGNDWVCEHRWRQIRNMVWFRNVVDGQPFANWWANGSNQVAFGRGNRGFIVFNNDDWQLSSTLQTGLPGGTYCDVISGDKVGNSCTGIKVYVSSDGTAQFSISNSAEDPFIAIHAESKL
Description: The α-amylase assay was performed as described by Gella, et al.. Porcine pancreatic α-amylase (EC 3.2.1.1) was purchased from Sigma-Aldrich Chemie GmbH.

[7] = biological target: T4, xanthine oxidase from bovine milk (Bos taurus, UniProt P80457); experiment: Inhibition of xanthine oxidase; format: biochemical; conditions: for IC50: phenolic compounds and metabolites, IC50 ± SD, read-out: XO IC50; for XO inhibition (in words): up to highest concentration tested (167 µM)
T4 construct: xanthine oxidase from bovine milk; purchased Sigma-Aldrich (St. Louis, MO, USA); host or cells: bovine milk
Description: The XO inhibitory activity with hypoxanthine as the substrate was carried out previously described. Test substances were dissolved in DMSO or water.

[8] = phenolic compounds and metabolites, read-out: 15-LO IC50
[9] = phenolic compounds and metabolites, read-out: α-Glucosidase IC50
[10] = 15-LO IC50, phenolic compounds and metabolites
[11] = α-Glucosidase IC50, phenolic compounds and metabolites

T4 sequence (P80457 whole entry): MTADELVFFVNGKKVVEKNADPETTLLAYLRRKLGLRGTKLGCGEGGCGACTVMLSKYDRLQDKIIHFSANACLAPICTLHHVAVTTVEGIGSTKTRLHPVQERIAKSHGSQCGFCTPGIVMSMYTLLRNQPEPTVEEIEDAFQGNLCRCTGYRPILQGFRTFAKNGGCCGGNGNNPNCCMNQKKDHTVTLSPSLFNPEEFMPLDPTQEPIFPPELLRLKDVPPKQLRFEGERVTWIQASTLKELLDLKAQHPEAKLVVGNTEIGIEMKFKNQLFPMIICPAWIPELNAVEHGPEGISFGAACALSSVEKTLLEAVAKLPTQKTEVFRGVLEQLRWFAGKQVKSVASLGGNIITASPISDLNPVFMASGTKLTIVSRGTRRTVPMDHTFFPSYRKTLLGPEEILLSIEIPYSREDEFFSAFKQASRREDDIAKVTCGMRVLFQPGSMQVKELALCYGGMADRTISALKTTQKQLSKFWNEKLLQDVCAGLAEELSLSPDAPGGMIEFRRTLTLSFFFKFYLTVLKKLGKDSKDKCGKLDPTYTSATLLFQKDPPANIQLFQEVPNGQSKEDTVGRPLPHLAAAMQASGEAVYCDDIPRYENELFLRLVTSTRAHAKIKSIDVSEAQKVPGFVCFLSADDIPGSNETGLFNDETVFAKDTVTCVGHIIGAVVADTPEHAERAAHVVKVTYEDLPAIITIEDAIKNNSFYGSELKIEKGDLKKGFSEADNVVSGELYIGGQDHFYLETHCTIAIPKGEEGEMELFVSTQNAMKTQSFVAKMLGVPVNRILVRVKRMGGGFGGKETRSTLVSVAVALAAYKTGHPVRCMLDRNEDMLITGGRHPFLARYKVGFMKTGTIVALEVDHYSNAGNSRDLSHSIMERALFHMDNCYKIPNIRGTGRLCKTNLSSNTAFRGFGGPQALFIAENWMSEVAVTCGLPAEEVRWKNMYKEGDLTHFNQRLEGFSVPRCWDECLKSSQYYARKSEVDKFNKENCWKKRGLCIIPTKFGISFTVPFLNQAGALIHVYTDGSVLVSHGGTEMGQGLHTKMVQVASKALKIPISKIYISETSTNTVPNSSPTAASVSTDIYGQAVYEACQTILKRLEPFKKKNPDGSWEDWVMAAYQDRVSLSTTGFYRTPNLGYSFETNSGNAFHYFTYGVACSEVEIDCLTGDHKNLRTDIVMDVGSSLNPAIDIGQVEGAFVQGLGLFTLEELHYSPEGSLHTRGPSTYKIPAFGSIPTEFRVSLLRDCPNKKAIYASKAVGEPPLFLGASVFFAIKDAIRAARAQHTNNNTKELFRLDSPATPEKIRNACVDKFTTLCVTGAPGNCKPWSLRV
T2 sequence (P53341 whole entry): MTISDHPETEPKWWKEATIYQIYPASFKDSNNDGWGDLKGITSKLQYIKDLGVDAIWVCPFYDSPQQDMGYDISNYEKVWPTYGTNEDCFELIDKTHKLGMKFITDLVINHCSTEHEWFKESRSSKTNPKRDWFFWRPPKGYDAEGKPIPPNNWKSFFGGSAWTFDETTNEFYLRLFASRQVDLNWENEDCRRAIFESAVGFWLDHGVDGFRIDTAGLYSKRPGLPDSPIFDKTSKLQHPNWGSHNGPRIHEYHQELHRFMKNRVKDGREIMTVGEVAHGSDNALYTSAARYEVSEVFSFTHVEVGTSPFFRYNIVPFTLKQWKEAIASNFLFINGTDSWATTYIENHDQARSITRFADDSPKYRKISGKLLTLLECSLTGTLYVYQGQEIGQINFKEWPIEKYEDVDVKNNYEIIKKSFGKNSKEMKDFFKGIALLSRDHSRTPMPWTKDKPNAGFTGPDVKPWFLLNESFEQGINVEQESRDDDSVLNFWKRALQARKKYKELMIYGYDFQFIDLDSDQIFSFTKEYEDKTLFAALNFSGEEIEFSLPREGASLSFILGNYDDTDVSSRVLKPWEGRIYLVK

Compound	IC50 [1, 8] [µM]	IC50 [2, 9] [µM]	IC50 [3] [µM]	oleic acid uptake (in words) ([4]; 10 µM)	glucose uptake (in words) ([5]; 10 µM (highest concentration tested))	IC50 [6] [µM]	IC50 [7] [µM]	XO inhibition (in words) [7]	IC50 [1, 10] [µM]	IC50 [2, 11] [µM]	glucose uptake (in words) ([5]; 0.1 and 1 µM, compared to DMSO control)	increase in glucose uptake [5]	increase in oleic acid uptake [4]
O=C(O)Cc1ccc(O)c(O)c1 [3,4-Dihydroxyphenylacetic acid]	135 ± 7.3	78.5 ± 1.6	116 ± 1.4	small but significant increase	small increase	74.9 ± 1.7	> 167	inactive					
O=C(O)c1ccccc1 [Benzoic acid]			145 ± 5.8				> 167	inactive	138 ± 6.5	129 ± 3.8	inactive		
O=C(O)/C=C/c1ccc(O)c(O)c1 [Caffeic acid]			90.3 ± 4.3				107 ± 3.2			18.5 ± 0.9			
Oc1cc(O)c2c(c1)O[C@H](c1ccc(O)c(O)c1)[C@@H](O)C2 [Catechin]		18.5 ± 2.2	19 ± 1.1			14.1 ± 0.8	> 167	did not inhibit					
Oc1cc(O)c2c(c1)O[C@H](c1ccc(O)c(O)c1)[C@H](O)C2 [Epicatechin]	116 ± 7.9	12.1 ± 2.3	15.6 ± 2.3			9.7 ± 2.1	> 167	did not inhibit					
COc1cc(-c2oc3cc(O)cc(O)c3c(=O)c2OC2OC(COC3OC(C)C(O)C(O)C3O)C(O)C(O)C2O)ccc1O (stereo not shown) [Isorhamnetin-3-rutinoside]	115 ± 6.2	25.2 ± 2.9	85 ± 2.1			26.2 ± 0.7	125 ± 3.9					10.0% ± 3.6%	
COc1cc(-c2oc3cc(O)cc(O)c3c(=O)c2O)ccc1O [Isorhamnetin]			63.3 ± 2.3						103 ± 2.4	8.1 ± 3.1		18.8% ± 4.3%	
CC1OC(OCC2OC(Oc3c(-c4ccc(O)cc4)oc4cc(O)cc(O)c4c3=O)C(O)C(O)C2O)C(O)C(O)C1O (stereo not shown) [Kaempferol-3-rutinoside]	109 ± 5.6		30.6 ± 3.9			19.1 ± 0.5	63.8 ± 2.1			23.9 ± 1.1		29.7% ± 2.5%	
O=C1C[C@@H](c2ccc(O)cc2)Oc2cc(O)cc(O)c21 [Naringenin]	124 ± 3.5		23.3 ± 1.4			6.2 ± 1.1	95.1 ± 4.5						
O=C(C=Cc1ccc(O)c(O)c1)OC1CC(O)(C(=O)O)CC(O)C1O (stereo not shown) [Neochlorogenic acid]	115 ± 5.8					15.4 ± 3.2	26.2 ± 3.1						
O=c1c(OC2OC(CO)C(O)C(O)C2O)c(-c2ccc(O)c(O)c2)oc2cc(O)cc(O)c12 (stereo not shown) [Quercetin-3-glucoside]			17.6 ± 3.2			3 ± 1.2	106 ± 5.3			4.1 ± 1.9			13.1% ± 3.5%
CC1OC(Oc2c(-c3ccc(O)c(O)c3)oc3cc(O)cc(O)c3c2=O)C(O)C(O)C1O (stereo not shown) [Quercetin-3-rhamnoside]	108 ± 4.6		19.1 ± 2.1			3.5 ± 0.9	105 ± 4.6			3.9 ± 1.4			5.0% ± 6.0%
C[C@@H]1O[C@@H](OC[C@H]2O[C@@H](Oc3c(-c4ccc(O)c(O)c4)oc4cc(O)cc(O)c4c3=O)[C@H](O)[C@@H](O)[C@@H]2O)[C@H](O)[C@H](O)[C@H]1O [Rutin, Quercetin-3-rutinoside]	99.3 ± 1.1		22.5 ± 1.6			4.1 ± 0.8	42.9 ± 2.9			4.6 ± 2.3			
